Consider 1 compound from patent publication US11926642B2, “Compounds and methods for the treatment of COVID-19” (priority 2020, dated 2024).

Each structure is given as a SMILES string.

The test system of series [1] is SARS-CoV-2. In words: Antiviral activity in A549-ACE2 cells, high content imaging of virus N protein. Format: cell-based, USA-WA1/2020 SARS-CoV-2. Conditions: for EC50 / EC90: Severe acute respiratory syndrome coronavirus 2, A549-ACE2.
The target of series [2] is PEDV-CoV-2 3CLpro (Porcine epidemic diarrhea virus, UniProt P0C6Y4). As to the kind of experiment: 3CLpro FRET protease activity assay, PEDV-CoV-2. Format: biochemical.
Series [3] deals with HKU5-CoV 3CLpro (Bat coronavirus HKU5, UniProt P0C6W4). Format: biochemical.
The test system of series [4] is SARS2 BetaCov GHB-03021/2020. In words: microbe, parasite or virus in culture. To be noted: Severe acute respiratory syndrome coronavirus 2; in the presence of the P-gp inhibitor. Format: cell-based, SARS-CoV-2.
Series [5] deals with OCT2 (Homo sapiens, UniProt O15244).
Series [6] addresses MATE2K (Homo sapiens, UniProt Q86VL8).
For series [7], the system named is HeLa-ACE2 cells.
In series [8] the target is hERG (Homo sapiens, UniProt Q12809).
For series [9], the target named is CYP2B6 (Homo sapiens, UniProt P20813). In words: biochemical.
Series [10] in a line: Intravenous pharmacokinetics of parent compound in rats, dogs and monkeys.
[11] abbreviates: IV, 1 or 2 mg/kg, across species.

MATE2K, sequence (Q86VL8 other isoform, or with tags, fused parts or gaps): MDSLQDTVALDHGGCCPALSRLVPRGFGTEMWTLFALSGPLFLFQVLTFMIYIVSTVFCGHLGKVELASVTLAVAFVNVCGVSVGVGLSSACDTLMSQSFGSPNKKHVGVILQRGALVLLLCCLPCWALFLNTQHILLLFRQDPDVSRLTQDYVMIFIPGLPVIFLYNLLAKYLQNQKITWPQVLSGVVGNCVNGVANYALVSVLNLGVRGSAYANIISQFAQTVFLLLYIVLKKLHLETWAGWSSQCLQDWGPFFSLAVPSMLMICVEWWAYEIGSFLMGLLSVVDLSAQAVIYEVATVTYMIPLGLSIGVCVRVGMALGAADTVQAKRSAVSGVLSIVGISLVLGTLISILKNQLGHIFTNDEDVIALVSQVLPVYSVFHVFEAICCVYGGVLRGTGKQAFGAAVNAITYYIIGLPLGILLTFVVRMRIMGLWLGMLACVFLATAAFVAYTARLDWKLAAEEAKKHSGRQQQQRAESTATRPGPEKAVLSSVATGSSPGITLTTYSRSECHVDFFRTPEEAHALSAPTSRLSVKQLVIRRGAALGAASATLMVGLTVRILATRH
HKU5-CoV 3CLpro, sequence (P0C6W4 3339-3644 limits assumed): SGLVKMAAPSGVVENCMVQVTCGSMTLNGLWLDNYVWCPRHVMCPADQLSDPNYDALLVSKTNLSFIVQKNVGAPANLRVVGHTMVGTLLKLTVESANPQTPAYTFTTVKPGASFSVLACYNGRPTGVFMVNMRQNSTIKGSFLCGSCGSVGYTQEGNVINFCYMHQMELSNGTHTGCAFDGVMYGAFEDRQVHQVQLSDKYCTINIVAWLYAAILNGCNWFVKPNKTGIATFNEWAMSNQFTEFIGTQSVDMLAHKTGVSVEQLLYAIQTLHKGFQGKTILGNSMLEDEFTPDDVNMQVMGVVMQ
OCT2, sequence (O15244 whole entry): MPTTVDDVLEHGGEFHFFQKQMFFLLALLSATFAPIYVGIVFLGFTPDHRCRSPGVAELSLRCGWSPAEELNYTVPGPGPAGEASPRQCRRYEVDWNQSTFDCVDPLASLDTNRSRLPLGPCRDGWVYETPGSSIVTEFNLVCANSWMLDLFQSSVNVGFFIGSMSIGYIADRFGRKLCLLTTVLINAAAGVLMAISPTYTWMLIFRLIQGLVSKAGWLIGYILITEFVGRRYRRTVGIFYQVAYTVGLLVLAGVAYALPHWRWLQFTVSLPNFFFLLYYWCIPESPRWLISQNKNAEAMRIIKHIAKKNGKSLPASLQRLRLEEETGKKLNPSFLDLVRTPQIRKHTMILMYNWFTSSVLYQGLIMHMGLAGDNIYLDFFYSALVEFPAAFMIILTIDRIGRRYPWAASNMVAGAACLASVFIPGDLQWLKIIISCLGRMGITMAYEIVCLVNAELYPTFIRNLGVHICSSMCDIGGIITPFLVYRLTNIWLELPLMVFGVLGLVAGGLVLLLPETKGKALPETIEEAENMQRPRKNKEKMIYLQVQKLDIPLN
PEDV-CoV-2 3CLpro, sequence (P0C6Y4 2998-3299): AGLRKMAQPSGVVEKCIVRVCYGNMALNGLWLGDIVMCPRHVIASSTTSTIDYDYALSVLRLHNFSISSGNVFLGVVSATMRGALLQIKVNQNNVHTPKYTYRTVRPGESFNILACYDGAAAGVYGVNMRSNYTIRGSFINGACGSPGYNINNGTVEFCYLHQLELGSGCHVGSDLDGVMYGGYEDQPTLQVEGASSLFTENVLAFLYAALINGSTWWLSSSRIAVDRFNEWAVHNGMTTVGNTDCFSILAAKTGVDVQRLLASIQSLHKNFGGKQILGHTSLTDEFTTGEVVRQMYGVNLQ
CYP2B6, sequence (P20813 whole entry): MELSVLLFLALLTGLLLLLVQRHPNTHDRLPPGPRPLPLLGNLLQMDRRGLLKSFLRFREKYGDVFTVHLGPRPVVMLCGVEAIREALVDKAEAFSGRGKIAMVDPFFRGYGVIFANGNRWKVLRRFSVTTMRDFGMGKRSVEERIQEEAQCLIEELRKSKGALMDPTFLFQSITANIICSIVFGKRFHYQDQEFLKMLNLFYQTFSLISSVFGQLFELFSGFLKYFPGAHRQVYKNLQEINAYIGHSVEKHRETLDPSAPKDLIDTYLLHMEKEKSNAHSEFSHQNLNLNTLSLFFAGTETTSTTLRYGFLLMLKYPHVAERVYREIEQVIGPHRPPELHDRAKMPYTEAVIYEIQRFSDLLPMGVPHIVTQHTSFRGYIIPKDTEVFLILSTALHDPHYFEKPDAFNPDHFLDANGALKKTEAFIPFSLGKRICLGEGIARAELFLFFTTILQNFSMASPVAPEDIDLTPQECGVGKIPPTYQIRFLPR
hERG, sequence (Q12809 whole entry): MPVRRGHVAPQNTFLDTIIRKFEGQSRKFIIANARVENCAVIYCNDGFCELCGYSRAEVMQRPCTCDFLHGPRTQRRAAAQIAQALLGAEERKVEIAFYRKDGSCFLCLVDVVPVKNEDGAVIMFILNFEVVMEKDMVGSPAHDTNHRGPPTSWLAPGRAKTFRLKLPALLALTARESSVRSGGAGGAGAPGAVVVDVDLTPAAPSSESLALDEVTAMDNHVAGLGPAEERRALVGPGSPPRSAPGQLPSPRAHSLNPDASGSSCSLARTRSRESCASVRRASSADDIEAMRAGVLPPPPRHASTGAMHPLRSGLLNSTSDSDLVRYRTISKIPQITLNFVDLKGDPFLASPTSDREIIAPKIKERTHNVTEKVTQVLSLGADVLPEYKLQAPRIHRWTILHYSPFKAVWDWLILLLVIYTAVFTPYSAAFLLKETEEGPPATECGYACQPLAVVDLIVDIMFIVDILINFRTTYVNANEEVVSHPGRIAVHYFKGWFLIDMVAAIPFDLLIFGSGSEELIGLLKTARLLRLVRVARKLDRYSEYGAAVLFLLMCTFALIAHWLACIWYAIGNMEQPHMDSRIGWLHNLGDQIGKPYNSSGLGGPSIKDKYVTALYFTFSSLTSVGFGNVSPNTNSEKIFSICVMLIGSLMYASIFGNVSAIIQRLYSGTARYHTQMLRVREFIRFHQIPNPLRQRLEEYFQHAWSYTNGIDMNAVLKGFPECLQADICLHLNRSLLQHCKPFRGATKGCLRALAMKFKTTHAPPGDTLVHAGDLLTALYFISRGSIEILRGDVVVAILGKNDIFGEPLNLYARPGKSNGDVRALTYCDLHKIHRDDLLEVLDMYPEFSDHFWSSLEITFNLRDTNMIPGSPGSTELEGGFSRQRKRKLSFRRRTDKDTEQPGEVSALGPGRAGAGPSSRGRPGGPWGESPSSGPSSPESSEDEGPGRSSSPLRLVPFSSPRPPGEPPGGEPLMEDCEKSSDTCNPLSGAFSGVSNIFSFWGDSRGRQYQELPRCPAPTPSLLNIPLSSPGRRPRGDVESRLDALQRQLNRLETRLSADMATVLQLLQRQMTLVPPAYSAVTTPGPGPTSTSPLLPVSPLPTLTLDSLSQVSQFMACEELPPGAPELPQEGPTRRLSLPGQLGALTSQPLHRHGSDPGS

Turning to `COc1cccc2[nH]c(C(=O)N[C@@H](CC(C)C)C(=O)N[C@@H](C[C@@H]3CCNC3=O)C(=O)CO)cc12` [parent compound, N-((1S)-1-{[((1S)-3-hydroxy-2-oxo-1-{[(3S)-2-oxopyrrolidin-3-yl]methyl}propyl)amino]carbonyl}-3-methylbutyl)-4-methoxy-1H-indole-2-carboxamide], the figures for the EC50 in [1] (24 hours post infection) and in series [1] (48 hours post infection) were 221 nM and 158 nM, respectively. Further, the EC90 in series [1] (24 hours post infection) is 734 nM; in series [1] (48 hours post infection), 439 nM; in series [4] it was 1600 nM. In series [1] (across a range of in vitro antiviral assays), the “Hill coefficient (m), slope of dose response” value is 3. Moreover, the Ki in series [2] is 0.3 ± 0.1 nM; in series [3], 0.03 nM. The results for the IC50 in series [5], in series [6] and in series [9] were above 20000 nM, above 20000 nM and above 200000 nM, respectively. For the same compound, the host cell cytotoxicity entry in series [7] is “No host cell cytotoxicity was observed”. Also, for the setting “at the projected human efficacious dose”, the “projected unbound human Cmax” value stood at 500 nM. Further, the predicted half-life entry (humans, predicted) was “approximately 2 h”. Besides, under “humans, predicted”, the “predicted steady state volume of distribution (Vdss)” value is 1 L/kg. For the same compound, the “predicted plasma clearance (CLp)” value (humans, predicted from in vitro metabolism and animal PK) was around 6 mL/min/kg. In series [8], the “hERG current amplitude: no inhibition at up to” value was 300 µM. The plasma clearances in [10] (setting [11]) was 35-60 % liver blood flow. In addition, the volumes of distribution in series [10] (setting [11]) was below 1 L/kg. For the same compound, the “eliminated unchanged in the urine” value in [10] (rat, dog and monkey) is given as “approximately 10%”.

As usually defined, the EC50 is the concentration that produces a half-maximal response. One may read the EC90 as the point of the concentration-response curve where the effect stands at 90%. By Ki is commonly meant a measure of affinity in units of concentration, obtained from inhibition or displacement. The IC50 is the point on the concentration scale where inhibition reaches its midpoint.
